Source: patent US20060183784A1, “Human growth hormone antagonists” (Genentech, Inc., priority 2001, published 2006)

Molecular target: binding of biotinylated human growth hormone (b-hGH) to the extracellular domain of its receptor (Homo sapiens, UniProt P01241)
Assay: ELISA of binding of biotinylated human growth hormone (b-hGH) to the extracellular domain of its receptor
Conditions: inhibition of b-hGH (about 1.5 nM) binding to receptor-coated plates; compounds re-tested at multiple concentrations
Description: A collection of heterocyclic aromatic compounds (384 total; 1 mmol each) was obtained from Aldrich Chemical Company or prepared as described in Holan et al., J. Chem Soc. C, 20-25 (1967)) incorporated herein by reference. Each compound was dissolved in dimethyl sulfoxide (DMSO) to yield a 100-mM solution and arrayed in 96-well polypropylene deep-well plates (Beckman). Dilutions (10-fold in DMSO) were prepared from the parent plates; these 10-mM stocks were then diluted 50-fold in the screening assay as described below (200 μM final concentration; 2% DMSO).
Human growth hormone (100 μM) in phosphate-buffered saline (PBS) was treated with 2 molar equivalents of EZ-Link Sulfo-NHS-LC-biotin™ (Pierce 21335™) according to the manufacturer's instructions. Binding of the biotinylated human growth hormone (b-hGH) to the extracellular domain of its receptor was assayed in an ELISA format. Briefly, Nunc Maxi-Sorb™ 96-well plates were treated with a solution of the receptor (2 μg/mL) in phosphate-buffered saline (PBS) overnight at 4° C. Plates were then blocked with a 0.2% solution of bovine serum albumin (BSA; Sigma A-7638) in PBS for 2 hours at room temperature. An appropriate dilution of b-hGH (generally about 1.5 nM final concentration in PBS containing 0.05% Tween-20 T detergent) was added to polypropylene plates containing aliquots of the screening collection (147 μL b-hGH to 3 μL compound in DMSO) or DMSO alone, and the mixtures were allowed to equilibrate at room temperature for approximately 45 min. These mixtures were then transferred to the receptor-coated plates and allowed to stand for 15 min. Plates were washed (10 times) with PBS/Tween-20™. Streptavidin-HRP conjugate (Zymed Laboratories 43-4323™) followed by TMB peroxidase reagent (Kirkegaard & Perry Laboratories 50-76-03™) was used to detect bound b-hGH. Several potential inhibitor compounds were re-tested at multiple concentrations. Table 1 below provides IC50 of the compounds tested.

Sequence of binding of biotinylated human growth hormone (b-hGH) to the extracellular domain of its receptor (P01241 27-217): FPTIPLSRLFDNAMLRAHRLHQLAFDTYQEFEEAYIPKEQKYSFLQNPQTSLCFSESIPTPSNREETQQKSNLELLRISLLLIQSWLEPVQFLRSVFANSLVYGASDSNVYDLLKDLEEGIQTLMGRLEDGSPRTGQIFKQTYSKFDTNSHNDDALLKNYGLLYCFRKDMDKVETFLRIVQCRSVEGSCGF

Compound	IC50
Clc1ccc2nc(C(Cl)(Cl)Cl)[nH]c2c1 [(i)]	77 µM
Cc1ccc2[nH]c(C(Cl)(Cl)Cl)nc2c1 [(iv)]	98 µM
FC(F)(F)c1nc2cc(Cl)ccc2[nH]1 [(vi)]	> 1000 µM
c1ccc2[nH]c(-c3cscn3)nc2c1 [(xii)]	> 1000 µM
Cc1ccc2[nH]cnc2c1 [(xiii)]	> 1000 µM
ClC(Cl)(Cl)c1nc2ccccc2s1 [(x)]	> 1000 µM
Cn1c(C(Cl)(Cl)Cl)nc2ccccc21 [(iii)]	150 µM
ClC(Cl)(Cl)c1nc2ccccc2o1 [(ix)]	> 1000 µM
Cc1nc2cc(Cl)ccc2[nH]1 [(viii)]	> 1000 µM
ClC(Cl)(Cl)c1nc2ccccc2[nH]1 [(ii)]	170 µM
Clc1ccc2[nH]cnc2c1 [(vii)]	> 1000 µM
Clc1cc2nc(C(Cl)(Cl)Cl)[nH]c2cc1Cl [(v)]	51 µM
Cc1nc2ccccc2[nH]1 [(xi)]	> 1000 µM
